One assay deals with Hu PD-L1/PD-1 (Homo sapiens, UniProt Q9NZQ7). Briefly: Cell binding assay Hu PD-L1/PD-1 (Tables 11-13, cell line not given). Type of assay: cell-based. The method, then:
The ability of the macrocyclic peptides of the present disclosure to bind to Jurkat, mouse B cell line (LK35.2), and a human lung adenocarcinoma cell line (L2987) was investigated. Jurkat-PD-1 Cell Binding Assay. Phycoerythrin (PE) was covalently linked to the Ig epitope tag of human PD-L1-Ig and fluorescently-labeled PD-L1-Ig was used for binding studies with a Jurkat cell line over-expressing human PD-1 (Jurkat-PD-1). […] Cells were washed 3× in dPBS. Cells were resuspended in 200 μl of dPBS and binding was measured by flow cytometry. LK35.2-hPD-L1 Cell Binding Assay. Phycoerythrin (PE) was covalently linked to the Ig eptitope tag of human PD-1-Ig and fluorescently-labeled PD-1-Ig was used for binding studies with a mouse B cell line (LK35.2) stably over-expressing human PD-L1 (LK35.2-hPD-L1). Briefly, […] LK35.2-hPD-L1 cells were pre-incubated with inhibitor for 15 m in a 30 μl volume of RPMI supplemented with 2% fetal calf serum. 20 μl of PE-labeled PD-1-Ig (2 nM final), diluted in RPMI supplemented with 2% fetal calf serum, was dispensed on top of cells and inhibitor and binding was allowed to take place for 1 h at room temperature. Cells were washed 3× in dPBS. Cells were resuspended in 200 μl of dPBS and binding was measured by flow cytometry. L2987 Cellomics Cell Binding Assay. Phycoerythrin (PE) was covalently linked to the Ig eptitope tag of human PD-1-Ig and fluorescently-labeled PD-1-Ig was used for binding studies with a human lung adenocarcinoma cell line (L2987) which naturally expresses PD-L1. […] The following day, inhibitors were diluted in serum-free DMEM and 25 μl was dispensed on top of cells. […] Samples were incubated for 1 h at 37° C. followed by 2 washes in dPBS and fixation for 30 m with 4% paraformaldehyde. Samples were further washed 2× in dPBS. Hoechst (final 1 μg/ml) was added to final wash to stain nuclei. Plates were processed using a Cellomics […]®.

Another assay deals with T1, Human PD-L1/PD-1 (Homo sapiens, UniProt Q9NZQ7).
T1 construct: made in house; host or cells: HEK293T
Briefly: HTRF PD-1-Ig/PD-L1-His binding assay (human PD-L1). Particulars: read-out: HTRF Human PD-L1/PD-1 Binding Assay IC50. The method in brief:
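Readout: time-resolved FRET between Eu cryptate-labeled anti-Ig (1 nM final) and APC-labeled anti-His (20 nM final) antibodies. These detect interaction of Fc-fused PD-1 with His-tagged human PD-L1 in dPBS containing 0.1% BSA and 0.05% Tween-20.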

Where [1] appears, read: Table 8, Compound No. 1 variant macrocyclic peptides.
[2] abbreviates: Table 13, Compound No. 71 series.

Where two headings read alike, the source gives them in different places. Positions of bridges follow the written chain, without caps; N, C: chain ends. Non-standard residues stand in square brackets, D forms with d. Residues, ends and D or L forms follow the SMILES beside them. ξ: configuration not given here. NMeF = CN[C@@H](Cc1ccccc1)C(=O)O; NMeNle = CCCC[C@H](NC)C(=O)O; NMeA = CN[C@@H](C)C(=O)O; ξV = CC(C)C(N)C(=O)O; ξP = O=C(O)C1CCCN1; Sar = CNCC(=O)O

T1 sequence (Q9NZQ7 with tags, fused parts or gaps): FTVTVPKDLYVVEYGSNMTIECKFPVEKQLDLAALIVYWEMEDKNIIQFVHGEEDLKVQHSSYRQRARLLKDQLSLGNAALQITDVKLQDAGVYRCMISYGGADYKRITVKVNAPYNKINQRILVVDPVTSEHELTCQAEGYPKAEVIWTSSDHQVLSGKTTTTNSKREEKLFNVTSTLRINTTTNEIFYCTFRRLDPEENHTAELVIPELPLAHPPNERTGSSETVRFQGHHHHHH
Chain of Hu PD-L1/PD-1 (Q9NZQ7 19-290): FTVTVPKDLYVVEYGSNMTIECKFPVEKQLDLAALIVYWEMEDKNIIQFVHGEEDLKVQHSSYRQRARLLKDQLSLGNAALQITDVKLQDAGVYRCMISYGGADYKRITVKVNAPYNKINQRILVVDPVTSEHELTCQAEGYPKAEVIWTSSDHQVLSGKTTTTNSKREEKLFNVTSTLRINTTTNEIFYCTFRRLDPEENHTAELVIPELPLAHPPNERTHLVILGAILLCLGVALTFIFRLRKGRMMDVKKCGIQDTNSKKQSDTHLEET

Regarding `CCCC[C@H]1C(=O)N(C)[C@@H](CCCC)C(=O)N[C@@H](CC(C)C)C(=O)N[C@H](C(=O)NCC(N)=O)CSCC(=O)N[C@@H](Cc2ccccc2)C(=O)N(C)[C@@H](C)C(=O)N[C@@H](CC(N)=O)C(=O)N2CCC[C@H]2C(=O)N[C@@H](Cc2c[nH]cn2)C(=O)N[C@@H](CC(C)C)C(=O)N[C@@H](CO)C(=O)N[C@@H](Cc2c[nH]c3ccccc23)C(=O)N[C@@H](CCCNC(=N)N)C(=O)N[C@@H](Cc2c[nH]c3ccccc23)C(=O)N1C` [Compound No. 4] ({CH2CO}-F[NMeA]NPHLSWRW[NMeNle][NMeNle]LCG-NH2; thioether N-14), the IC50 at Hu PD-L1/PD-1 (Table 11) and at Human PD-L1/PD-1 (Table 6) was 15 nM in each case.
In the case of `CCCC[C@H]1C(=O)N(C)[C@@H](CCCC)C(=O)N[C@@H](CCCNC(=N)N)C(=O)N[C@H](C(=O)NCC(N)=O)CSCC(=O)N[C@@H](Cc2ccccc2)C(=O)N(C)[C@@H](C)C(=O)N[C@@H](CC(N)=O)C(=O)N2CCCC2C(=O)N[C@@H](C)C(=O)N[C@@H](CC(C)C)C(=O)N(C)CC(=O)N[C@@H](Cc2c[nH]c3ccccc23)C(=O)N[C@@H](CO)C(=O)N[C@@H](Cc2c[nH]c3ccccc23)C(=O)N1C` (stereo partly shown) [Compound No. 10] ({CH2CO}-F[NMeA]N[ξP]AL[Sar]WSW[NMeNle][NMeNle]RCG-NH2; thioether N-14), the IC50 came out at 82 nM on Hu PD-L1/PD-1 and 16 nM on Human PD-L1/PD-1 (setting [1]).
As to `CCCC[C@H]1C(=O)N(C)[C@@H](CCCC)C(=O)N[C@@H](CCCNC(=N)N)C(=O)N[C@H](C(=O)NCC(N)=O)CSCC(=O)N[C@@H](Cc2ccccc2)C(=O)N(C)[C@@H](C)C(=O)N[C@@H](CC(N)=O)C(=O)N2CCCC2C(=O)N[C@@H](Cc2cnc[nH]2)C(=O)N[C@@H](CC(C)C)C(=O)N(C)[C@@H](C)C(=O)N[C@@H](Cc2c[nH]c3ccccc23)C(=O)N[C@@H](CO)C(=O)N[C@@H](Cc2c[nH]c3ccccc23)C(=O)N1C` (stereo partly shown) [Compound No. 13] ({CH2CO}-F[NMeA]N[ξP]HL[NMeA]WSW[NMeNle][NMeNle]RCG-NH2; thioether N-14), the results for the IC50 at Hu PD-L1/PD-1 and on Human PD-L1/PD-1 (setting [1]) were 35 nM and 16 nM, respectively.
Take `CCCC[C@H]1C(=O)N(C)[C@@H](CCCC)C(=O)N[C@@H](CCCNC(=N)N)C(=O)N[C@H](C(=O)NCC(N)=O)CSCC(=O)N[C@@H](Cc2ccccc2)C(=O)N(C)[C@@H](C)C(=O)N[C@@H](CC(N)=O)C(=O)N2CCCC2C(=O)N[C@@H](Cc2cnc[nH]2)C(=O)N[C@@H](CC(C)C)C(=O)N(C)CC(=O)N[C@@H](Cc2c[nH]c3ccccc23)C(=O)N[C@@H](C)C(=O)N[C@@H](Cc2c[nH]c3ccccc23)C(=O)N1C` (stereo partly shown) [Compound No. 16] ({CH2CO}-F[NMeA]N[ξP]HL[Sar]WAW[NMeNle][NMeNle]RCG-NH2; thioether N-14): the IC50 on Hu PD-L1/PD-1 was 13 nM; at Human PD-L1/PD-1 (setting [1]), 5 nM.
Take `CCCC[C@H]1C(=O)N(C)CC(=O)N[C@@H](CC(=O)O)C(=O)N[C@@H](C(C)C)C(=O)N(C)[C@@H](Cc2ccccc2)C(=O)N[C@@H](Cc2ccc(O)cc2)C(=O)N(C)CC(=O)N[C@@H](Cc2c[nH]c3ccccc23)C(=O)N[C@@H](Cc2ccc(O)cc2)C(=O)N[C@@H](CC(C)C)C(=O)N[C@H](C(=O)NCC(N)=O)CSCC(=O)N[C@@H](C)C(=O)N(C)[C@@H](Cc2ccccc2)C(=O)N1C` [Compound No. 72] (HELM PEPTIDE1{[O=C(C[*:3])[*:2]].A.[meF].[CCCC[C@@H](C(=O)[*:2])N(C)[*:1]].[Sar].D.V.[meF].Y.[Sar].W.Y.L.C.G.[am]}$PEPTIDE1,PEPTIDE1,1:R3-14:R3$$$V2.0): the IC50 at Hu PD-L1/PD-1 (setting [2]) was > 10000 nM.
For `CCCC[C@H]1C(=O)N(C)CC(=O)N[C@@H](CC(=O)O)C(=O)NC(C(C)C)C(=O)N(C)[C@@H](Cc2ccccc2)C(=O)N[C@@H](Cc2ccc(O)cc2)C(=O)N(C)CC(=O)N[C@@H](Cc2c[nH]c3ccccc23)C(=O)N[C@@H](C)C(=O)N[C@@H](CC(C)C)C(=O)N[C@H](C(=O)NCC(N)=O)CSCC(=O)N[C@@H](Cc2ccccc2)C(=O)N(C)[C@@H](Cc2ccccc2)C(=O)N1C` (stereo partly shown) [Compound No. 86] ({CH2CO}-F[NMeF][NMeNle][Sar]D[ξV][NMeF]Y[Sar]WALCG-NH2; thioether N-13), the IC50 on Hu PD-L1/PD-1 (setting [2]) was 7250 nM.

These data come from US9850283B2, “Macrocyclic inhibitors of the PD-1/PD-L1 and CD80(B7-1)/PD-L1 protein/protein interactions” (BRISTOL-MYERS SQUIBB COMPANY, priority 2013, dated 2017).
